Measurements as given in publication PMC7111628 (Antiviral Research, 2020).
Where two headings read alike, the source gives them in different places.

Legend:
HSV-1 [1] = conditions: Vero cells; ref Lyu et al., 2005; cited from earlier work
[2] = tested on: SARS-CoV helicase protein; conditions: cited from earlier work
[3] = MTT cytotoxicity assay in Hep-2 cells; format: cell-based; conditions: human, CC50, Hep-2 cells, MTT assay, concentration required to reduce cell viability by 50%
[4] = MTT cytotoxicity assay in HeLa cells; format: cell-based; conditions: human, CC50, HeLa cells, MTT assay, concentration required to reduce cell viability by 50%
HSV-1 (F strain) [5] = test: Murine intranasal model of HSV pneumonia and encephalitis; format: in vivo, BALB/c mice; conditions: for survival by day 14 post infection: placebo 20%
HSV-1 (F strain) [6] = test: CPE inhibition assay, HSV-1; conditions: for IC50: read-out: HSV-1 IC50
HSV-2 (333 strain) [7] = test: CPE inhibition assay, HSV-2; conditions: for IC50: read-out: HSV-2 IC50
Vero cells = test: MTT cytotoxicity assay in Vero cells; format: cell-based; conditions: 50 to 400 μM, 24 h incubation
Hep-2 cells = test: MTT cytotoxicity assay in Hep-2 cells; format: cell-based; conditions: 50 to 400 μM, MTT, 24 h incubation
HeLa cells = test: MTT cytotoxicity assay in HeLa cells; format: cell-based; conditions: 50 to 400 μM, MTT, 24 h incubation
HSV-1 gD protein [8] = target: T1, HSV-1 gD protein (Human herpesvirus 1, UniProt Q69091); test: Surface plasmon resonance; format: binding, Herpes simplex virus type 1
T1 sequence (Q69091 26-394): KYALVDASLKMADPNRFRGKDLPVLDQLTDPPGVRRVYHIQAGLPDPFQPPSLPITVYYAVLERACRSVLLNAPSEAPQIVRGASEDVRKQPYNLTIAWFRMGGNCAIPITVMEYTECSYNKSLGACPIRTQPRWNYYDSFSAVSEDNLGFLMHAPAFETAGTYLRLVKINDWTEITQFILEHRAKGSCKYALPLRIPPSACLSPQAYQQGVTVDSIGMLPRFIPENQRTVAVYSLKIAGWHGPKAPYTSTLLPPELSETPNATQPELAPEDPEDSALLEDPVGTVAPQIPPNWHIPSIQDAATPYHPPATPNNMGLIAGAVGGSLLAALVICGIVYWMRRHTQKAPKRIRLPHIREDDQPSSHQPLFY

phosphorylated EGFR = test: Western blot of phosphorylated EGFR in HSV-2 infected cells; format: cell-based; conditions: HSV-2 (MOI = 1.0) infected cells, virus control about 2.4
phosphorylated PI3K = test: Western blot of phosphorylated PI3K in HSV-2 infected cells; format: cell-based; conditions: HSV-2 (MOI = 1.0) infected cells, virus control about 1.9
phosphorylated Akt = test: Western blot of phosphorylated Akt in HSV-2 infected cells; format: cell-based; conditions: HSV-2 (MOI = 1.0) infected cells, virus control about 12.1
HSV-1 (F strain) [9] = test: Virus yield in culture media by plaque assay, HSV-1; format: cell-based, Herpes simplex virus type 1; conditions: Vero cells; concentration >1.25 μM; 24 h p.i.; p < 0.05
HSV-2 (333 strain) [10] = test: Virus yield in culture media by plaque assay, HSV-2; format: cell-based, Herpes simplex virus type 2; conditions: Vero cells; concentration >1.25 μM; 24 h p.i.; p < 0.05
HSV-1 [11] = test: Plaque reduction assay, HSV-1; format: cell-based, Herpes simplex virus type 1; conditions: pretreatment of HSV with 1.25-20 μM; Vero cells
HSV-2 [12] = test: Plaque reduction assay, HSV-2; format: cell-based, Herpes simplex virus type 2; conditions: pretreatment of HSV with 1.25-20 μM; Vero cells
HSV-2 [13] = test: Cell fusion inhibition assay; format: cell-based, Herpes simplex virus type 2; conditions: 30, 15 μM during 5-7 h p.i.; HSV-2 (MOI = 3.0) infected Vero cells
gD protein = test: Western blot of virus gD expression during 5-7 h p.i.; format: cell-based, Herpes simplex virus type 2; conditions: treatment during 5-7 h p.i.
HSV-1 gD protein [14] = target: T1, HSV-1 gD protein; test: DARTS assay, gD; format: binding, Herpes simplex virus type 1; conditions: 60 μM; pronase 3 μg/ml; HSV-1 infected Vero cell lysates
[15] = tested on: gB, gC, and gH/gL proteins; test: DARTS assay, other virus surface glycoproteins; format: binding, Herpes simplex virus type 1; conditions: 60 μM; HSV-1 infected Vero cell lysates
HVEM and nectin-1 = test: DARTS assay, cellular surface receptors of HSV-1; format: binding; conditions: 60 μM; HSV-1 infected Vero cell lysates
HSV-1 gD protein [16] = target: T1, HSV-1 gD protein; test: HSV-1 gD binding to Vero cells, cell ELISA; format: cell-based, Herpes simplex virus type 1
[17] = tested on: EGFR, PI3K and Akt proteins; test: Western blot of total EGFR, PI3K and Akt in HSV-2 infected Vero cells; format: cell-based; conditions: 2.5, 5, 10, 20 μM for 2 h
EGFR/PI3K/Akt pathway [18] = test: Western blot of phosphorylated EGFR, PI3K and Akt in non-infected Vero cells; format: cell-based; conditions: 2.5, 5, 10, 20 μM for 2 h
EGFR/PI3K/Akt pathway [19] = format: cell-based; conditions: 5, 10, 20 μM; Vero cells treated with HSV-1 gD protein (2 μg/ml); vs gD treated control, p < 0.05
HSV-1 gD mRNA = test: Real-time RT-PCR of gD mRNA, HSV-1 infected Vero cells; format: cell-based, Herpes simplex virus type 1; conditions: 5, 10, 20 μM; HSV-1 (MOI = 1.0) infected Vero cells, 8 h; p < 0.05
HSV-2 gD mRNA = test: Real-time RT-PCR of gD mRNA, HSV-2 infected Vero cells; format: cell-based, Herpes simplex virus type 2; conditions: 5, 10, 20 μM; HSV-2 (MOI = 1.0) infected Vero cells, 8 h; p < 0.05
[20] = tested on: HIV reverse transcriptase; conditions: ref Pasetto et al., 2014; cited from earlier work
HSV-1 [21] = test: Time-of-addition assay, HSV-1; conditions: Vero cells, 24 h p.i.
HSV-2 [22] = test: Time-of-addition assay, HSV-2; conditions: Vero cells, 24 h p.i.
HSV-1 (F strain) [23] = test: Indirect immunofluorescence assay of ICP27 in HSV-1 infected Vero cells; conditions: pretreatment of virus with 10 μM before infection
[24] = 10 mg·kg-1 intraperitoneal, day 4 p.i.
[25] = 20 μM for 1 h before infection, p < 0.01

SMILES: O=c1c(O)c(-c2ccc(O)c(O)c2)oc2cc(O)cc(O)c12 [quercetinin, reference compound]
- inhibitory effects against HSV-1 (HSV-1 [1]): moderate inhibitory effects

SMILES: O=c1cc(-c2ccc(O)cc2)oc2cc(O)c(O)c(O)c12 [scutellarein, reference compound]
- inhibition of SARS-CoV helicase protein [2]: potently inhibited

SMILES: Nc1nc2c(ncn2COCCO)c(=O)[nH]1 [Acyclovir]
- CC50 at 24 h [3]: 898 ± 72.6 µM
- CC50 at 24 h [4]: 830 ± 40 µM
- survival by day 14 post infection (HSV-1 (F strain) [5]; 10 mg·kg-1 intraperitoneal once daily for five days): 90%
- virus titers in lungs (HSV-1 (F strain) [5]; [24]): significant reduction of virus titers
- virus titers in spinal cord (HSV-1 (F strain) [5]; [24]): significant reduction of virus titers
- HSV-1 SI (CC50/IC50) (HSV-1 (F strain) [6]; HeLa cells): 75.5
- HSV-1 SI (CC50/IC50) (HSV-1 (F strain) [6]; Hep-2 cells): 46.5
- IC50 (HSV-1 (F strain) [6]; Human alphaherpesvirus 1, HEp-2, 24 h): 19.3 ± 2.2 µM
- IC50 (HSV-1 (F strain) [6]; Human alphaherpesvirus 1, HeLa, 24 h): 11 ± 1.2 µM
- IC50 (HSV-1 (F strain) [6]; Human alphaherpesvirus 1, Vero, 24 h): 7.4 ± 0.6 µM
- HSV-1 SI (CC50/IC50) (HSV-1 (F strain) [6]; Vero cells): 131.8
- HSV-2 SI (CC50/IC50) (HSV-2 (333 strain) [7]; HeLa cells): 37.9
- HSV-2 SI (CC50/IC50) (HSV-2 (333 strain) [7]; Hep-2 cells): 31.5
- IC50 (HSV-2 (333 strain) [7]; Human alphaherpesvirus 2, HEp-2, 24 h): 28.5 ± 4.3 µM
- IC50 (HSV-2 (333 strain) [7]; Human alphaherpesvirus 2, HeLa, 24 h): 21.9 ± 3.2 µM
- IC50 (HSV-2 (333 strain) [7]; Human alphaherpesvirus 2, Vero, 24 h): 11.6 ± 2.5 µM
- HSV-2 SI (CC50/IC50) (HSV-2 (333 strain) [7]; Vero cells): 84.1

SMILES: O=c1c(O)c(-c2cc(O)c(O)c(O)c2)oc2cc(O)cc(O)c12 [Myricetin, 3,5,7-trihydroxy-2-(3,4,5-trihydroxyphenyl)-4-benzopyrone]
- cytotoxicity (Vero cells): no significant cytotoxicity
- CC50 at 24 h [3]: ~965 µM
- cytotoxicity (Hep-2 cells): no significant cytotoxicity
- CC50 at 24 h [4]: ~1150 µM
- cytotoxicity (HeLa cells): no significant cytotoxicity
- Kd (HSV-1 gD protein [8]): ~0.0609 µM
- level of phosphorylated EGFR (phosphorylated EGFR; 10 μM for 2 h): about 1.4 fold of normal control group
- level of phosphorylated EGFR (phosphorylated EGFR; 20 μM for 2 h): ~0.8 fold of normal control group
- level of phosphorylated PI3K (phosphorylated PI3K; 5 μM for 2 h): about 1.4 fold of normal control group
- level of phosphorylated PI3K (phosphorylated PI3K; 10 μM for 2 h): about 1.4 fold of normal control group
- level of phosphorylated PI3K (phosphorylated PI3K; 20 μM for 2 h): ~0.8 fold of normal control group
- activation of Akt (p-Akt) (phosphorylated Akt; 5 μM for 2 h): about 3.9 fold of normal control group
- activation of Akt (p-Akt) (phosphorylated Akt; 10 μM for 2 h): ~2.5 fold of normal control group
- activation of Akt (p-Akt) (phosphorylated Akt; 20 μM for 2 h): ~1.2 fold of normal control group
- brain histopathology (HE staining) (HSV-1 (F strain) [5]; 2.5 mg·kg-1, day 4 p.i., comparable to acyclovir (10 mg·kg-1)): only had tiny hyperaemia
- brain histopathology (HE staining) (HSV-1 (F strain) [5]; 5 mg·kg-1, day 4 p.i.): nearly had no hyperaemia and infiltration of inflammatory cells
- lung histopathology (HE staining) (HSV-1 (F strain) [5]; 2.5 or 5 mg·kg-1, day 4 p.i.): intact columnar epithelium
- survival by day 14 post infection (HSV-1 (F strain) [5]; 2.5 or 5 mg·kg-1 intraperitoneal once daily for five days): 100%
- body weight loss during the infection (HSV-1 (F strain) [5]; 2.5 or 5 mg·kg-1 intraperitoneal once daily for five days, placebo up to 19%): less than 5%
- survival rates compared to placebo-treated control group (HSV-1 (F strain) [5]; 2.5 or 5 mg·kg-1 intraperitoneal, p < 0.01): significantly increased survival rates
- pulmonary virus titers (HSV-1 (F strain) [5]; myricetin 2.5 or 5 mg·kg-1 intraperitoneal, day 4 p.i., plaque assay, p < 0.05): significantly decreased
- virus titers in culture media (HSV-1 (F strain) [9]): significantly reduced the virus titers
- virus titers in culture media (HSV-2 (333 strain) [10]): significantly reduced the virus titers
- number of plaques (HSV-1 [11]): significantly reduced the number of plaques
- number of plaques (HSV-2 [12]): significantly reduced the number of plaques
- syncytium formation (HSV-2 [13]): markedly blocked syncytium formation
- expression of virus surface glycoproteins such as gD protein (gD protein): did not obviously influence the expression
- protection of gD protein from protease digestion (HSV-1 gD protein [14]): obviously protected
- protection of gB, gC, and gH/gL proteins from protease digestion [15]: could not protect
- protection of HVEM and nectin-1 from protease digestion (HVEM and nectin-1): could also not be protected
- binding of gD to cell surface, pre-incubation of gD protein (HSV-1 gD protein [16]; 5, 10, 20, 40 μM, gD protein 2 μg/mL, dose-dependent): significantly reduced the binding of gD to cell surface
- amount of gD protein on cell surface, pretreatment of cells (HSV-1 gD protein [16]; 40, 20, 10, 5 μM for 1 h): did not significantly decrease the amount of gD protein on cell surface
- total expression levels of EGFR, PI3K and Akt proteins [17]: did not significantly influence the total expression levels
- activation of EGFR, PI3K and Akt proteins (EGFR/PI3K/Akt pathway [18]): could not significantly influence the activation
- levels of phosphorylated EGFR, PI3K, and Akt proteins (EGFR/PI3K/Akt pathway [19]): significantly reduced
- expression level of gD mRNA (HSV-1 gD mRNA): significantly reduced the expression level of gD mRNA
- expression level of gD mRNA (HSV-2 gD mRNA): significantly reduced the expression level of gD mRNA
- activity of HIV reverse transcriptase [20]: inhibited the activity of HIV reverse transcriptase
- inhibitory effects against HSV-1 (HSV-1 [1]): moderate inhibitory effects
- inhibition of SARS-CoV helicase protein [2]: potently inhibited
- virus titers, pretreatment of virus (HSV-1 [21]; [25]): significantly reduced the virus titers
- virus titers, pretreatment of cells (HSV-1 [21]; 20 μM): did not significantly reduce virus titers
- virus multiplication, treatment after adsorption (HSV-1 [21]; 20 μM, p < 0.05): obvious inhibition on virus multiplication
- virus titers, pretreatment of virus (HSV-2 [22]; [25]): significantly reduced the virus titers
- virus titers, pretreatment of cells (HSV-2 [22]; 20 μM): did not significantly reduce virus titers
- virus multiplication, treatment after adsorption (HSV-2 [22]; 20 μM, p < 0.05): obvious inhibition on virus multiplication
- expression of ICP27 (HSV-1 (F strain) [23]): significantly reduced the expression of ICP27
